From the NIST ThermoML archive (doi:10.1021/je1008747)

Conditions: Liquid

C[C@H](O)C(=O)[O-].C[N+](C)(C)CCO
Conditions	mass density [kg/m3]
293.15 K, 101.33 kPa	1143.2
298.15 K, 101.33 kPa	1139.9
303.15 K, 101.33 kPa	1136.8
308.15 K, 101.33 kPa	1133.6
312.4 K, 100 kPa	1130
312.4 K, 10000 kPa	1133
312.4 K, 20000 kPa	1137
312.4 K, 30000 kPa	1140
312.4 K, 40000 kPa	1143
312.4 K, 50000 kPa	1146
312.4 K, 60000 kPa	1150
312.4 K, 70000 kPa	1152
312.4 K, 80000 kPa	1155
312.4 K, 90000 kPa	1157
312.4 K, 100000 kPa	1160
312.4 K, 110000 kPa	1163
312.4 K, 120000 kPa	1166
312.4 K, 130000 kPa	1168
312.4 K, 140000 kPa	1171
312.4 K, 150000 kPa	1173
312.4 K, 160000 kPa	1176
312.4 K, 170000 kPa	1178
312.4 K, 180000 kPa	1181
312.4 K, 190000 kPa	1183
312.4 K, 200000 kPa	1185
313.15 K, 101.33 kPa	1130.5
318.15 K, 101.33 kPa	1127.3
323.15 K, 101.33 kPa	1124.2
328.15 K, 101.33 kPa	1121.1
332.3 K, 10000 kPa	1121
332.3 K, 20000 kPa	1124
332.3 K, 30000 kPa	1128
332.3 K, 40000 kPa	1131
332.3 K, 50000 kPa	1134
332.3 K, 60000 kPa	1137
332.3 K, 70000 kPa	1140
332.3 K, 80000 kPa	1143
332.3 K, 90000 kPa	1146
332.3 K, 100000 kPa	1149
332.3 K, 110000 kPa	1152
332.3 K, 120000 kPa	1154
332.3 K, 130000 kPa	1157
332.3 K, 140000 kPa	1160
332.3 K, 150000 kPa	1162
332.3 K, 160000 kPa	1165
332.3 K, 170000 kPa	1168
332.3 K, 180000 kPa	1170
332.3 K, 190000 kPa	1172
332.3 K, 200000 kPa	1175
333.15 K, 101.33 kPa	1118.1
338.15 K, 101.33 kPa	1115.1
343.15 K, 101.33 kPa	1112.2
348.15 K, 101.33 kPa	1109.3
352.2 K, 10000 kPa	1109
352.2 K, 20000 kPa	1113
352.2 K, 30000 kPa	1116
352.2 K, 40000 kPa	1120
352.2 K, 50000 kPa	1123
352.2 K, 60000 kPa	1126
352.2 K, 70000 kPa	1129
352.2 K, 80000 kPa	1132
352.2 K, 90000 kPa	1135
352.2 K, 100000 kPa	1138
352.2 K, 110000 kPa	1141
352.2 K, 120000 kPa	1144
352.2 K, 130000 kPa	1146
352.2 K, 140000 kPa	1149
352.2 K, 150000 kPa	1152
352.2 K, 160000 kPa	1154
352.2 K, 170000 kPa	1157
352.2 K, 180000 kPa	1159
352.2 K, 190000 kPa	1162
352.2 K, 200000 kPa	1165
353.15 K, 101.33 kPa	1106.4
372.3 K, 10000 kPa	1098
372.3 K, 20000 kPa	1101
372.3 K, 30000 kPa	1105
372.3 K, 40000 kPa	1109
372.3 K, 50000 kPa	1112
372.3 K, 60000 kPa	1115
372.3 K, 70000 kPa	1118
372.3 K, 80000 kPa	1122
372.3 K, 90000 kPa	1125
372.3 K, 100000 kPa	1128
372.3 K, 110000 kPa	1130
372.3 K, 120000 kPa	1133
372.3 K, 130000 kPa	1136
372.3 K, 140000 kPa	1139
372.3 K, 150000 kPa	1142
372.3 K, 160000 kPa	1144
372.3 K, 170000 kPa	1147
372.3 K, 180000 kPa	1150
372.3 K, 190000 kPa	1152
372.3 K, 200000 kPa	1155
392.4 K, 10000 kPa	1086
392.4 K, 20000 kPa	1090
392.4 K, 30000 kPa	1094
392.4 K, 40000 kPa	1098
392.4 K, 50000 kPa	1101
392.4 K, 60000 kPa	1105
392.4 K, 70000 kPa	1108
392.4 K, 80000 kPa	1111
392.4 K, 90000 kPa	1114
392.4 K, 100000 kPa	1117
392.4 K, 110000 kPa	1121
392.4 K, 120000 kPa	1124
392.4 K, 130000 kPa	1126
392.4 K, 140000 kPa	1129
392.4 K, 150000 kPa	1132
392.4 K, 160000 kPa	1135
392.4 K, 170000 kPa	1138
392.4 K, 180000 kPa	1140
392.4 K, 190000 kPa	1143
392.4 K, 200000 kPa	1146
